Data published in Sander's compilation of Henry's law constants (doi:10.1021/ac00058a023).

assay: Henry solubility constant Hcp at 298.15 K (mol/(m3 Pa)); details: reference: Li and Carr (1993)

In order of falling “Henry solubility constant Hcp” value:
1. CCO [ethanol]  1.9
2. CCCO [1-propanol]  1.4
3. CCCCCO [1-pentanol]  0.84
4. CCCCCCO [1-hexanol]  0.64
5. CC#N [ethanenitrile]  0.46
6. Cc1cccc([N+](=O)[O-])c1 [3-nitrotoluene]  0.28
7. CCCCC#N [pentanenitrile]  0.14
8. CC(C)C#N [2-methylpropanenitrile]  0.094
9. CCCCCCCC(C)=O [2-nonanone]  0.041
10. COc1ccccc1 [methoxybenzene]  0.032
11. ClC(Cl)C(Cl)Cl [1,1,2,2-tetrachloroethane]  0.029
12. CCCCCCCC=O [octanal]  0.021
13. CCOc1ccccc1 [ethoxybenzene]  0.017
14. ClCc1ccccc1 [(chloromethyl)-benzene]  0.012
15. Ic1ccccc1 [iodobenzene]  0.0076
16. Brc1ccccc1 [bromobenzene]  0.0044
17. CC(C)OC(C)C [diisopropyl ether]  0.0042
18. CCCOCCC [dipropyl ether]  0.003
19. Clc1ccccc1 [chlorobenzene]  0.0025
20. Cc1ccccc1C [1,2-dimethylbenzene]  0.0019
21. c1ccccc1 [benzene]  0.0017
22. Cc1ccccc1 [methylbenzene]  0.0016
23. Cc1ccc(C)cc1 [1,4-dimethylbenzene]  0.0013
24. Cc1cc(C)cc(C)c1 [1,3,5-trimethylbenzene]  0.0013
25. CCc1ccccc1 [ethylbenzene]  0.0013
26. Cc1cccc(C)c1 [1,3-dimethylbenzene]  0.0013
27. Fc1ccccc1 [fluorobenzene]  0.0011
28. CCCc1ccccc1 [propylbenzene]  0.00093
29. CC(C)c1ccccc1 [(2-propyl)-benzene]  0.00091
30. CCCCc1ccccc1 [butylbenzene]  0.00071
31. ClC(Cl)(Cl)Cl [tetrachloromethane]  0.00023
